How the values were obtained:
[1] = tested on: male spontaneously hypertensive rats; assay: Systolic blood pressure in male spontaneously hypertensive rats after oral administration; assay type: in vivo; conditions: groups of four rats; for Blood Pressure: systolic; for effect on systolic blood pressure (in words): oral administration
Description: Blood pressures were read prior to drug administration and at 1.5, 4 and 24 hours thereafter using a Decker Caudal Plethysmograph.

[2] = biological target: T1, angiotensin converting enzyme (Oryctolagus cuniculus, UniProt P12822); assay: Inhibition of hippuryl-L-histidyl-L-leucine hydrolysis by angiotensin converting enzyme; assay type: biochemical; conditions: rabbit lung ACE, substrate HHL 5 mM, 37° C., 30 min
T1 construct: A crude angiotensin converting enzyme supernatant is obtained by blending 1 gm. of rabbit lung acetone powder; tissue PelFreez Biologicals; host or cells: rabbit lung acetone powder
T1 sequence (P12822 34-1310): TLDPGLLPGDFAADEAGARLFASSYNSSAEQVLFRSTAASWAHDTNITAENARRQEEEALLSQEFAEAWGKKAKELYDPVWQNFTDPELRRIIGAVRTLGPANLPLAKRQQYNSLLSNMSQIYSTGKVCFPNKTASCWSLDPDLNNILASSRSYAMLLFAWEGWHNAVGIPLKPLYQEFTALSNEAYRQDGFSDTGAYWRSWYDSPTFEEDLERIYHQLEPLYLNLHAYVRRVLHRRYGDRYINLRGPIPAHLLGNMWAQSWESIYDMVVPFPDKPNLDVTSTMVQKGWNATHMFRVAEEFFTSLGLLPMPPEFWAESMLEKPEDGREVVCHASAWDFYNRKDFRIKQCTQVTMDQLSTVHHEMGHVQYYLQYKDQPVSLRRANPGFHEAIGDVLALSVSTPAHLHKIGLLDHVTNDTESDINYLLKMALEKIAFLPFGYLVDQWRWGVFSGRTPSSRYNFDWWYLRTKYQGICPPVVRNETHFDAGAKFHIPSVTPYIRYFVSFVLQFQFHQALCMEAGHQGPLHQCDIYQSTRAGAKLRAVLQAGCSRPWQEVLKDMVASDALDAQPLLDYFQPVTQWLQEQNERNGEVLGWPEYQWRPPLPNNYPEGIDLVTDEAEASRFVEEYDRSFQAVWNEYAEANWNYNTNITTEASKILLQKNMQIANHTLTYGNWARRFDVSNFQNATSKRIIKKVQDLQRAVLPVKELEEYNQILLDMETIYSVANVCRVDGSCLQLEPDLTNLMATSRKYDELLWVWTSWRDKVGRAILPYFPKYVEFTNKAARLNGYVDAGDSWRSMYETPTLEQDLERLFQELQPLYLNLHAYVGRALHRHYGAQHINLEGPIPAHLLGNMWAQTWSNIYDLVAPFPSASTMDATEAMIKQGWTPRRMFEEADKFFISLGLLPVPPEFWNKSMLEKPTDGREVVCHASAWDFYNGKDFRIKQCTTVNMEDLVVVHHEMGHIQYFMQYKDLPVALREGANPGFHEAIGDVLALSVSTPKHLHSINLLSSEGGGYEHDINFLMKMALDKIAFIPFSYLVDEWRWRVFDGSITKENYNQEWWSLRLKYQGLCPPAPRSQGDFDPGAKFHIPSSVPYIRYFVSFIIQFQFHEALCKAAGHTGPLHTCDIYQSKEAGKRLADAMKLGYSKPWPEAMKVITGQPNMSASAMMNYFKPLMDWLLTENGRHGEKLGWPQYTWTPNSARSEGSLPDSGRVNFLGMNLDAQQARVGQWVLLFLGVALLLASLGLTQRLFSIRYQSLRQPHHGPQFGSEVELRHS
Description: The activity of the compounds of this invention was established by incubation of hippuryl-L-histidyl-L-leucine at 37° C. with angiotensin converting enzyme by the following procedure:
A crude angiotensin converting enzyme supernatant is obtained by blending 1 gm. of rabbit lung acetone powder (PelFreez Biologicals) with 35 ml. of 50 mM (buffered) potassium phosphate, pH 8.3 and centrifuging for 45 min. at 40,000×g.
The specific angiotensin converting enzyme substrate Hippuryl-L-histidyl-L-leucine (HHL-Sigma Chem. Co.) is prepared at 5 mM in 200 mM potassium phosphate buffer containing 757 mM NaCl at pH 8.3.
Incubation for the assay of HHL hydrolysis by angiotensin converting enzyme is carried out in a 37° C. gyrorotary incubator in disposable 13×100 mm tubes. Each 0.25 ml assay mixture contains the following components at the final concentrations: potassium phosphate buffer, 100 mM; NaCl, 300 mM; HHL, 5 mM; and enzyme 0.15 ml (10 mU approx.) added last to initiate the reaction. Zero time controls have 0.25 ml of 2N HCl added before the enzyme. The timed reactions are terminated with acid at 30 min. similarly and the hippuric acid freed from substrate is extracted into 1.5 ml of ethyl acetate layer is transferred to a clean tube. […]
The hippuric acid is resuspended in 1.0 ml of water, the absorbance at […] is determined, and the amount present is calculated from a standard curve. […]

Compound: N^α -(DL-1-carboxy-3-phenylpropyl)-L-lysyl-N-p-methoxyphenylglycine [Example 3]
- Blood Pressure ([1]; 50 mg/kg PO, 1.5 hours): 183 mmHg
- Blood Pressure ([1]; 50 mg/kg PO, 4 hours): 181 mmHg
- Blood Pressure ([1]; 50 mg/kg PO, 24 hours): 204 mmHg
- effect on systolic blood pressure (in words) [1]: reduce systolic blood pressure

Compound: NCCCC[C@H](NC(CCc1ccccc1)C(=O)O)C(=O)N(CC(=O)O)c1ccccc1 (mixture of isomers) [Example 2, N^α -(DL-1-carboxy-3-phenylpropyl)-L-lysyl-N-phenylglycine]
- IC50 [2]: 146 nM
- Blood Pressure ([1]; 150 mg/kg PO, 1.5 hours): 196 mmHg
- Blood Pressure ([1]; 150 mg/kg PO, 4 hours): 194 mmHg
- effect on systolic blood pressure (in words) [1]: reduce systolic blood pressure

— patent US4487716A, “N-(1-Carboxy-3-phenylpropyl)-dipeptides” (American Home Products Corporation, priority 1982, dated 1984)
